Legend:
[1] = molecular target: T1, mouse PKCβI-mVenus (Mus musculus, UniProt P68404); experiment: Apparent cellular Kd by flow cytometry, HEK293 cells overexpressing PKCβI-mVenus (Example 2); assay type: binding
T1 construct: eight plasmids encoding full length mouse PKC isozymes fused to; expressed in transfected cells; host or cells: HEK293
Experimental: The apparent Kd values of these fluorescent probes were measured using different PKC isozymes (e.g., PKCβI, FIGS. 20A-20D). HEK293 cells were transfected to overexpress PKCβ-mVenus and treated with probes in the presence of verapamil (100 μM) as an inhibitor of efflux.

[2] = molecular target: T2, native (untagged) murine PKCβI (Mus musculus, UniProt P68404); experiment: FPCBA saturation binding of probe 1, native PKCβI (IRES-mVenus) in HEK293 cells
T2 construct: For coexpression of full-length unmodified PKC proteins with mVenus as an independent marker; expressed in transfected cells; host or cells: HEK293 (transient, pIRES-mVenus)
T2 sequence (P68404 2-673 isoform P68404-2): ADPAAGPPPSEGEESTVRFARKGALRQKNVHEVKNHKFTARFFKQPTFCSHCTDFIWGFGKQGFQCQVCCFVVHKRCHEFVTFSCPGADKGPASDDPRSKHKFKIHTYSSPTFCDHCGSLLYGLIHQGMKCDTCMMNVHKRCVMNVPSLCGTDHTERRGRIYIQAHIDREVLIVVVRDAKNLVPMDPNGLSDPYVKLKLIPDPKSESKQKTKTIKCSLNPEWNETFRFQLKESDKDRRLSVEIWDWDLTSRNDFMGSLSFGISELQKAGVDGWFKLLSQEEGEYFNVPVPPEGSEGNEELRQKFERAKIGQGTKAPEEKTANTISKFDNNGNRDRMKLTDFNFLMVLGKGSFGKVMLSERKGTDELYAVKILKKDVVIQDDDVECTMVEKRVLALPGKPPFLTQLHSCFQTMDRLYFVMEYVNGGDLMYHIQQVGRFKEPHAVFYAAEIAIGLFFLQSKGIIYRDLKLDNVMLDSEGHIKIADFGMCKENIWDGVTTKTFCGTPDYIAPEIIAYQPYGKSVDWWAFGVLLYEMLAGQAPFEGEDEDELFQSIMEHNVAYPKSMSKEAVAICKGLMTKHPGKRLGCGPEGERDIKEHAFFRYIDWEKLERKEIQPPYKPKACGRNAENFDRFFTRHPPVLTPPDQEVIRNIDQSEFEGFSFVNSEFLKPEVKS
From the text: To measure the binding of 1 and 2 to PKCβI in cells, we used flow cytometry to analyze the blue fluorescence of transfected and non-transfected cells as a function of probe concentration at equilibrium (FIGS. 37A-37F). In these assays, we directly compared the PKCβI-mVenus fusion protein with native PKCβI expressed separately from mVenus. […] This low background signal facilitated saturation binding assays, where non-specific binding of probes to non-transfected cells was subtracted from total binding to highly transfected cells (P2 gate) to measure specific binding. […] We further compared cells treated with and without the orthosteric PKC catalytic inhibitor BIM1 to block the kinase activity of PKC and isolate the analysis of interactions of 1 and 2 with the C1 regulatory domains of PKCbI.

[3] = molecular target: native (untagged) murine PKCα (Mus musculus, UniProt P20444); experiment: FPCBA saturation binding of probe 1, native PKCα (IRES-mVenus) in HEK293 cells
[4] = molecular target: T3, native (untagged) murine PKCε (Mus musculus, UniProt P16054); experiment: FPCBA saturation binding of probe 1, native PKCε (IRES-mVenus) in HEK293 cells
T3 sequence (P16054 1-737): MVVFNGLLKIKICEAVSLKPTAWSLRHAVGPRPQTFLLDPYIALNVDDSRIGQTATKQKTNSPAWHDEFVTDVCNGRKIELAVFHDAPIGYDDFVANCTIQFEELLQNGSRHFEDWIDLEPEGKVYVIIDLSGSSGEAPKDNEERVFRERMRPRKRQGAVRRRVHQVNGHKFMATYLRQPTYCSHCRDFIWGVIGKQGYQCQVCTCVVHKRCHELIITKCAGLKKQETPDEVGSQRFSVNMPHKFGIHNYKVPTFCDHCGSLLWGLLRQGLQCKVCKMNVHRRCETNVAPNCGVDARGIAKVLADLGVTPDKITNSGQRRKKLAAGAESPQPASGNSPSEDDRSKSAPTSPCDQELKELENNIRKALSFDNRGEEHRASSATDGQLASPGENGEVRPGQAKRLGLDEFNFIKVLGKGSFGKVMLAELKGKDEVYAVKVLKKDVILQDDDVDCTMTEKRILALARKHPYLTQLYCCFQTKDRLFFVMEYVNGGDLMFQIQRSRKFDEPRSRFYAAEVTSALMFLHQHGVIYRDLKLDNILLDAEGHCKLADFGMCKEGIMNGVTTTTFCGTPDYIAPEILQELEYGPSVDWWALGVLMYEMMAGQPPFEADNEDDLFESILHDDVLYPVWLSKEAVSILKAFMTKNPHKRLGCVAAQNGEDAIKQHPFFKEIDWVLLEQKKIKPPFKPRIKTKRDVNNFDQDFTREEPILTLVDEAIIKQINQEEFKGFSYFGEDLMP

[5] = molecular target: native (untagged) murine PKCη (Mus musculus, UniProt P23298); experiment: FPCBA saturation binding of probe 1, native PKCη (IRES-mVenus) in HEK293 cells
[6] = molecular target: T4, native (untagged) murine PKCθ (Mus musculus, UniProt Q02111); experiment: FPCBA saturation binding of probe 1, native PKCθ (IRES-mVenus) in HEK293 cells
T4 sequence (Q02111 whole entry): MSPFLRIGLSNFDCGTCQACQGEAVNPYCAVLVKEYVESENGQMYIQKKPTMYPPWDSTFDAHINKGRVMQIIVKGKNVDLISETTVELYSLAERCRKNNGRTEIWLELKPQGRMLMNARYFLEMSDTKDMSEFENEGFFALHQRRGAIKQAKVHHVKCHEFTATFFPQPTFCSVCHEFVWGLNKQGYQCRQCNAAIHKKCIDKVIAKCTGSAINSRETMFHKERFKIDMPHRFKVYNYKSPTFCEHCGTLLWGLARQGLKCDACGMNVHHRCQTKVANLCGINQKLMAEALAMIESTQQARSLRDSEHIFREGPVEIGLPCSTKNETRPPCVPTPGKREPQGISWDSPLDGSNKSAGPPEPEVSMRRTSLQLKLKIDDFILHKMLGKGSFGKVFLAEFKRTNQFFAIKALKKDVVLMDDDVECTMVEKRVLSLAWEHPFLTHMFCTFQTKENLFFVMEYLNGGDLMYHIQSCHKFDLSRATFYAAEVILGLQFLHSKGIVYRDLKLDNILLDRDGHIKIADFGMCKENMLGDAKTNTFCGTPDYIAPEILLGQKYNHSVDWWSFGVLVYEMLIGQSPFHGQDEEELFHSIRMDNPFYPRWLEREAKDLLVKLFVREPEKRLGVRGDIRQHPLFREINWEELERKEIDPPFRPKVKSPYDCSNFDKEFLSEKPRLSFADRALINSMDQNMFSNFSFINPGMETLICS

[7] = molecular target: murine PKCζ-mVenus (Mus musculus, UniProt Q02956); experiment: FPCBA saturation binding of probe 1, HEK293 cells expressing PKCζ-mVenus (Example 3); settings: BIM1 2 μM, 2 h at 37° C., 4% FBS
[8] = molecular target: T2, native (untagged) murine PKCβI; experiment: FPCBA competition with probe 1, native PKCβI in HEK293 cells; assay type: binding; settings: read-out: Cellular Ki for native PKCβI (95% confidence interval); probe 1 400 nM, BIM1 2 μM, 2 h at 37° C.
[9] = molecular target: T5, native (untagged) murine PKCδ (Mus musculus, UniProt P28867); experiment: FPCBA competition with probe 1, native PKCδ in HEK293 cells; assay type: binding; settings: read-out: Cellular Ki for native PKCδ (95% confidence interval); probe 1 400 nM, BIM1 2 μM, 2 h at 37° C.
T5 construct: For coexpression of full-length unmodified PKC proteins with mVenus as an independent marker; expressed in transfected cells; host or cells: HEK293 (transient, pIRES-mVenus)
T5 sequence (P28867 whole entry): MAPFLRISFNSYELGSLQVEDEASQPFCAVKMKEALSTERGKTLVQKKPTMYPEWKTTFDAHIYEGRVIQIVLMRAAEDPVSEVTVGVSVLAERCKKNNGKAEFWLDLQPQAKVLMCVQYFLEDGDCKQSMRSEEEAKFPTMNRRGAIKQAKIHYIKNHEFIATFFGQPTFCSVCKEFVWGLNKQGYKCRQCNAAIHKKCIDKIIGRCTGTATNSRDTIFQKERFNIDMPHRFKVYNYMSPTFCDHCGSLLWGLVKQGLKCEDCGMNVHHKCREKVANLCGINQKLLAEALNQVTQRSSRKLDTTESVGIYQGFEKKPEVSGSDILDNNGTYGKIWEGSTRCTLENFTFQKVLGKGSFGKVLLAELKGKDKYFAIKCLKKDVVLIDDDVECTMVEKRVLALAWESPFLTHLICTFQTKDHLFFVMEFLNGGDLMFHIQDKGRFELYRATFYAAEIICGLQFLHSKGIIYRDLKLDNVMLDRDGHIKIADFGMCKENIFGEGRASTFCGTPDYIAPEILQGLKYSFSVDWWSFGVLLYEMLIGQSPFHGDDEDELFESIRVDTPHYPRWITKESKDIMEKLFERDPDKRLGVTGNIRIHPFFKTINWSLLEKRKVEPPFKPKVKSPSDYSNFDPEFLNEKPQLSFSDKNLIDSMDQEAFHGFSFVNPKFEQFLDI

[10] = molecular target: PKCα (Homo sapiens, UniProt P17252); settings: radiolabeled PDBu at 4° C.; read-out: Biochemical Ki, PKCα; cited from earlier work
[11] = molecular target: PKCβI (Homo sapiens, UniProt P05771); settings: radiolabeled PDBu at 4° C.; read-out: Biochemical Ki, PKCβI; cited from earlier work
[12] = molecular target: PKCζ (Homo sapiens, UniProt Q05513); settings: radiolabeled PDBu at 4° C.; cited from earlier work
Chain of PKCζ (Q05513 whole entry): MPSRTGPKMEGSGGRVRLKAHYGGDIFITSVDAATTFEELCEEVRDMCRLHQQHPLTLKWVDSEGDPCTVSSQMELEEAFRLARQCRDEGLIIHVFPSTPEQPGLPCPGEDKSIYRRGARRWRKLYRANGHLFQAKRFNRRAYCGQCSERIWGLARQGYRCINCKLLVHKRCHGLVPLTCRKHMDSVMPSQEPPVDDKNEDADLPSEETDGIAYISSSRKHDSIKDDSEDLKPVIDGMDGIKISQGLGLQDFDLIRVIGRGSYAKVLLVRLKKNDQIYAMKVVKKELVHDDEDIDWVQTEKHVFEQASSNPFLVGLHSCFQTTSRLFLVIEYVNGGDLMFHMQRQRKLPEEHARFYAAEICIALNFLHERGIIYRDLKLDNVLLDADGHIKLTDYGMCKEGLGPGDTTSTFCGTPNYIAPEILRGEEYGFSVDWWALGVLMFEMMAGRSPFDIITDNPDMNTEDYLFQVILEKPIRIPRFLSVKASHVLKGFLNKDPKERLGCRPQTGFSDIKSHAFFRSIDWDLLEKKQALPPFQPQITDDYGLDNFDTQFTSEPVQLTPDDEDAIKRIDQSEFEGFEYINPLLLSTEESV

[13] = molecular target: PKCη (Homo sapiens, UniProt P24723); settings: radiolabeled PDBu at 4° C.; read-out: Biochemical Ki, PKCη; cited from earlier work
Chain of PKCη (P24723 whole entry): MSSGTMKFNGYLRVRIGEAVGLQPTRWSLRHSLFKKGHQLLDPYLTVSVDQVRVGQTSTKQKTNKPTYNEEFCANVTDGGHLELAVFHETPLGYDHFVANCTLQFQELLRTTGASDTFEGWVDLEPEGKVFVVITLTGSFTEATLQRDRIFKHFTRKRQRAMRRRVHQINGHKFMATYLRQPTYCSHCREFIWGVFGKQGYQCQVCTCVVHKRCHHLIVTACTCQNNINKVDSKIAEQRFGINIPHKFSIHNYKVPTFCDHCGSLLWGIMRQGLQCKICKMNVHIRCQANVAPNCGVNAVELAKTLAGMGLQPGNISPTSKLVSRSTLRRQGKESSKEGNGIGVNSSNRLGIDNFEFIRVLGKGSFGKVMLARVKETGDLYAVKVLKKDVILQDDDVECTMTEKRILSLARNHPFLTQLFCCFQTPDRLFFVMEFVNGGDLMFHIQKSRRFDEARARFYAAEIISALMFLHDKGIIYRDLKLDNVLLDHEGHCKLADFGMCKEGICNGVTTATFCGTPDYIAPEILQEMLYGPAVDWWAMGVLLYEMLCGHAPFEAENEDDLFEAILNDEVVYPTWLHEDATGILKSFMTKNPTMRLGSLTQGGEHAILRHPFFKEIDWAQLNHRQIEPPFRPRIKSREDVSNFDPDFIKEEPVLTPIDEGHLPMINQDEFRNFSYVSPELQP

[14] = molecular target: PKCθ (Homo sapiens, UniProt Q04759); settings: radiolabeled PDBu at 4° C.; read-out: Biochemical Ki, PKCθ; cited from earlier work
Chain of PKCθ (Q04759 whole entry): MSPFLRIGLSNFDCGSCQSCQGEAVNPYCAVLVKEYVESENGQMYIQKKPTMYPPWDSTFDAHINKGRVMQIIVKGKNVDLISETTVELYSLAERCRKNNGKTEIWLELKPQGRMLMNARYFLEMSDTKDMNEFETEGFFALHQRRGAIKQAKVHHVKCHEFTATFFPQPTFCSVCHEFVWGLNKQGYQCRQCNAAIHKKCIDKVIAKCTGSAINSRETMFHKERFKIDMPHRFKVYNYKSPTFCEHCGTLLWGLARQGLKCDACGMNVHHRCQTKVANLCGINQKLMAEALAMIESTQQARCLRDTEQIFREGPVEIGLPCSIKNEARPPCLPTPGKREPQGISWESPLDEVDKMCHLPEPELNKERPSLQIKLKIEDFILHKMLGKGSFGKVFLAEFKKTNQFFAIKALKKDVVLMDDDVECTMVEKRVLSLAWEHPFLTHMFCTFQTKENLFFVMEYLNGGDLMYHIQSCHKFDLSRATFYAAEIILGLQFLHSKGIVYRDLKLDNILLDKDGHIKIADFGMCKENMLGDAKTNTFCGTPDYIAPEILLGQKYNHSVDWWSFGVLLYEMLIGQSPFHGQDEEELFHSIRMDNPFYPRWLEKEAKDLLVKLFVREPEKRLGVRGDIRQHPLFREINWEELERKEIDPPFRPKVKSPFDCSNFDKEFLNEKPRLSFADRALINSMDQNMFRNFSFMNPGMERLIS

[15] = molecular target: T4, native (untagged) murine PKCθ; experiment: FPCBA competition with probe 1, native PKCθ in HEK293 cells; assay type: binding; parameters: expressed in transfected cells; host or cells: HEK293 (ATCC CRL-1573), transient transfection with pIRES-mVenus carrying the PKC gene; settings: read-out: Cellular Ki for native PKCθ (95% confidence interval); probe 1 400 nM, BIM1 2 μM, 2 h at 37° C.

Structure (SMILES) | Kd [1] | affinity of native untagged PKCβI relative to PKCβI-mVenus fusion [2] | Kd ([2]; IRES-mVenus, BIM1 2 μM, 2 h at 37° C., 4% FBS, read-out: Cellular Kd for probe, native PKCβI) | Kd [3] | Kd [4] | Kd [5] | Kd [6] | Cellular Kd for probe, PKCζ-mVenus [7] | Ki [8] | Ki [9] | Ki [10] | Ki [11] | Biochemical Ki, PKCζ [12] | Ki [13] | Ki [14] | Ki [15]
CCCCCCN(CCCCCCCCCCCCNC(=O)c1cc2cc(F)c(O)c(F)c2oc1=O)C(=O)O[C@@]12[C@H](O)[C@@H](C)[C@@]3(O)[C@@H](C=C(CO)C[C@]4(O)C(=O)C(C)=C[C@@H]34)[C@@H]1C2(C)C [probe 1, (1aR,1bS,4aR,7aS,7bS,8R,9R,9aS)-4a,7b,9-trihydroxy-3-(hydroxymethyl)-1,1,6,8-tetramethyl-5-oxo-1,1a,1b,4,4a,5,7a,7b,8,9-decahydro-9aH-cyclopropa[3,4]benzo[1,2-e]azulen-9a-yl (12-(6,8-difluoro-7-hydroxy-2-oxo-2H-chromene-3-carboxamido)dodecyl)(hexyl)carbamate] | 190 nM | ~2 fold | 97 nM | 63 nM | 568 ± 141 nM | 177 nM | 1050 ± 125 nM | No binding |  |  |  |  |  |  |  | 
CCC/C=C/C=C/C(=O)O[C@H]1/C(=C/C(=O)OC)C[C@H]2C[C@H]([C@@H](C)O)OC(=O)C[C@H](O)C[C@@H]3C[C@H](OC(C)=O)C(C)(C)[C@](O)(C[C@@H]4C/C(=C/C(=O)OC)C[C@H](/C=C/C(C)(C)[C@]1(O)O2)O4)O3 [bryostatin 1] |  |  |  |  |  |  |  |  | 4 nM | 20 nM | 0.81 nM | 2.2 nM | No binding | 2.2 nM | 1.5 nM | 8 nM
